Assay results reported in US12121524B2, “DNA-PK inhibitors” (VERTEX PHARMACEUTICALS INCORPORATED, priority 2018, dated 2024).

Molecular target: DNA-PK (Homo sapiens, UniProt P78527)
Experiment: DNA-PK inhibition assay (standard radiometric 33P-ATP kinase assay)
Assay type: biochemical
Details: 100 μM ATP, approx. 6 nM DNA-PK
Procedure: Compounds were screened for their ability to inhibit DNA-PK kinase using a standard radiometric assay. Briefly, in this kinase assay the transfer of the terminal ^33P-phosphate in ^33P-ATP to a peptide substrate is interrogated. The assay was carried out in 384-well plates to a final volume of 50 μL per well containing approximately 6 nM DNA-PK, 50 mM HEPES (pH 7.5), 10 mM MgCl2, 25 mM NaCl, 0.01% BSA, 1 mM DTT, 10 μg/mL sheared double-stranded DNA (obtained from Sigma), 0.8 mg/mL DNA-PK peptide (Glu-Pro-Pro-Leu-Ser-Gln-Glu-Ala-Phe-Ala-Asp-Leu-Trp-Lys-Lys-Lys, obtained from American Peptide), and 100 μM ATP.
Accordingly, compounds of the invention were dissolved in DMSO to make 10 mM initial stock solutions. Serial dilutions in DMSO were then made to obtain the final solutions for the assay. A 0.75 μL aliquot of DMSO or inhibitor in DMSO was added to each well, followed by the addition of ATP substrate solution containing ^33P-ATP (obtained from Perkin Elmer). The reaction was started by the addition of DNA-PK, peptide and ds-DNA. After 45 min, the reaction was quenched with 25 μL of 5% phosphoric acid. The reaction mixture was transferred to MultiScreen HTS 384-well PH plates (obtained from Millipore), allowed to bind for one hour, and washed three times with 1% phosphoric acid. Following the addition of 50 μL of Ultima Gold™ high efficiency scintillant (obtained from Perkin Elmer), the samples were counted in a Packard TopCount NXT Microplate Scintillation and Luminescence Counter (Packard BioScience). The Ki values were calculated using Microsoft Excel Solver macros to fit the data to the kinetic model for competitive tight-binding inhibition.

Row | SMILES | Ki [nM]
1 | CN1CCN(c2ccc(C(=O)N[C@H]3CC[C@@H](Oc4cc(N5CCOCC5)cc5nccnc45)CC3)nc2)CC1 [Compound 198] | < 100
2 | CN1CCN(c2ncc(C(=O)N[C@H]3CC[C@@H](Oc4cc(N5CCOCC5)cc5nccnc45)CC3)cn2)CC1 [Compound 199] | < 100
3 | CN1CCN(c2ccc(C(=O)N[C@H]3CC[C@@H](Oc4cc(N5CCOCC5)cc5nccnc45)CC3)cc2F)CC1 [Compound 200] | < 100
4 | COC(=O)c1cccnc1N[C@H]1CC[C@@H](Oc2cc(N3CCOCC3)cc3nccnc23)CC1 [Compound 202] | < 100
5 | N#Cc1nccc(N[C@H]2CC[C@@H](Oc3cc(N4CCOCC4)cc4nccnc34)CC2)n1 [Compound 203] | < 100
6 | CNc1cc(N[C@H]2CC[C@@H](Oc3cc(N4CCOCC4)cc4nccnc34)CC2)ncn1 [Compound 205] | < 100
7 | O=C(O)c1ccnc(N[C@H]2CC[C@@H](Oc3cc(N4CCOCC4)cc4nccnc34)CC2)c1 [Compound 210] | < 100
8 | N#Cc1cc(N[C@H]2CC[C@@H](Oc3cc(N4CCOCC4)cc4nccnc34)CC2)ncn1 [Compound 234] | < 100
9 | O[C@H](c1cnc(N[C@H]2CC[C@@H](Oc3cc(N4CCOCC4)cc4nccnc34)CC2)nc1)C(F)(F)F [Compound 235] | < 100
10 | O[C@@H](c1cnc(N[C@H]2CC[C@@H](Oc3cc(N4CCOCC4)cc4nccnc34)CC2)nc1)C(F)(F)F [Compound 236] | < 100
11 | c1ccc(N[C@H]2CC[C@@H](Oc3cc(N4CCOCC4)cc4nccnc34)CC2)nc1 [Compound 254] | < 100
12 | COCCNc1cc(N[C@H]2CC[C@@H](Oc3cc(N4CCOCC4)cc4nccnc34)CC2)ncn1 [Compound 263] | < 100
13 | CC(C)(CO)Nc1ccnc(N[C@H]2CC[C@@H](Oc3cc(N4CCOCC4)cc4nccnc34)CC2)n1 [Compound 264] | < 100
14 | c1cc(N[C@H]2CC[C@@H](Oc3cc(N4CCOCC4)cc4nccnc34)CC2)nc(C2CC2)n1 [Compound 267] | < 100
15 | c1cncc(N[C@H]2CC[C@@H](Oc3cc(N4CCOCC4)cc4nccnc34)CC2)c1 [Compound 272] | < 100
16 | c1cc(N[C@H]2CC[C@@H](Oc3cc(N4CCOCC4)cc4nccnc34)CC2)ccn1 [Compound 273] | < 100
17 | Cc1nc(N[C@H]2CC[C@@H](Oc3cc(N4CCOCC4)cc4nccnc34)CC2)cc(N2CCN(C)CC2)n1 [Compound 275] | < 100
18 | Fc1c(Cl)ncnc1N[C@H]1CC[C@@H](Oc2cc(N3CCOCC3)cc3nccnc23)CC1 [Compound 277] | < 100
19 | C[C@H](CO)Nc1ncnc(N[C@H]2CC[C@@H](Oc3cc(N4CCOCC4)cc4nccnc34)CC2)c1F [Compound 380] | < 100
20 | COC(=O)c1cc(N[C@H]2CC[C@@H](Oc3cc(N4CCOCC4)cc4nccnc34)CC2)ncc1OC(C)(C)C [Compound 407] | < 100
21 | Cc1cnc(N[C@H]2CC[C@@H](Oc3cc(N4CCOCC4)cc4nccnc34)CC2)nc1N1CCCCC1 [Compound 567] | < 100
22 | CCOc1ncc(F)c(N[C@H]2CC[C@@H](Oc3cc(N4CCOCC4)cc4nccnc34)CC2)n1 [Compound 607] | < 100

Continued, values first:

Row | Ki [nM] | SMILES
23 | < 100 | COc1ccc(N[C@H]2CC[C@@H](Oc3cc(N4CCOCC4)cc4nccnc34)CC2)nc1 [Compound 206]
24 | < 100 | N#Cc1ccnc(N[C@H]2CC[C@@H](Oc3cc(N4CCOCC4)cc4nccnc34)CC2)n1 [Compound 207]
25 | < 100 | CCc1cnc(N[C@H]2CC[C@@H](Oc3cc(N4CCOCC4)cc4nccnc34)CC2)nc1 [Compound 208]
26 | < 100 | CC(C)c1cnc(N[C@H]2CC[C@@H](Oc3cc(N4CCOCC4)cc4nccnc34)CC2)nc1 [Compound 209]
27 | < 100 | CCOc1cc(N[C@H]2CC[C@@H](Oc3cc(N4CCOCC4)cc4nccnc34)CC2)ncn1 [Compound 215]
28 | < 100 | COc1nc(Cl)cc(N[C@H]2CC[C@@H](Oc3cc(N4CCOCC4)cc4nccnc34)CC2)n1 [Compound 219]
29 | < 100 | COCc1cc(N[C@H]2CC[C@@H](Oc3cc(N4CCOCC4)cc4nccnc34)CC2)ncn1 [Compound 225]
30 | < 100 | CCOc1cnc(N[C@H]2CC[C@@H](Oc3cc(N4CCOCC4)cc4nccnc34)CC2)nc1 [Compound 233]
31 | < 100 | Cc1nc(N[C@H]2CC[C@@H](Oc3cc(N4CCOCC4)cc4nccnc34)CC2)ccc1C#N [Compound 241]
32 | < 100 | Cc1cc(C#N)cnc1N[C@H]1CC[C@@H](Oc2cc(N3CCOCC3)cc3nccnc23)CC1 [Compound 242]
33 | < 100 | CC(C)(O)c1cnc(N[C@H]2CC[C@@H](Oc3cc(N4CCOCC4)cc4nccnc34)CC2)nc1 [Compound 243]
34 | < 100 | COc1cc(N[C@H]2CC[C@@H](Oc3cc(N4CCOCC4)cc4nccnc34)CC2)nc(OC)n1 [Compound 245]
35 | < 100 | Cc1ccnc(N[C@H]2CC[C@@H](Oc3cc(N4CCOCC4)cc4nccnc34)CC2)n1 [Compound 246]
36 | < 100 | CC(C)Oc1cnc(N[C@H]2CC[C@@H](Oc3cc(N4CCOCC4)cc4nccnc34)CC2)nc1 [Compound 247]
37 | < 100 | Cc1ccc(N[C@H]2CC[C@@H](Oc3cc(N4CCOCC4)cc4nccnc34)CC2)nc1 [Compound 256]
38 | < 100 | COc1ccc(N[C@H]2CC[C@@H](Oc3cc(N4CCOCC4)cc4nccnc34)CC2)nn1 [Compound 260]
39 | < 100 | Cc1cc(N[C@H]2CC[C@@H](Oc3cc(N4CCOCC4)cc4nccnc34)CC2)ncn1 [Compound 265]
40 | < 100 | COc1nccc(N[C@H]2CC[C@@H](Oc3cc(N4CCOCC4)cc4nccnc34)CC2)n1 [Compound 268]
41 | < 100 | CN(C)c1nc(N[C@H]2CC[C@@H](Oc3cc(N4CCOCC4)cc4nccnc34)CC2)ncc1F [Compound 269]
42 | < 100 | COc1cc(C)nc(N[C@H]2CC[C@@H](Oc3cc(N4CCOCC4)cc4nccnc34)CC2)n1 [Compound 276]
43 | < 100 | Cc1ccc(N[C@H]2CC[C@@H](Oc3cc(N4CCOCC4)cc4nccnc34)CC2)nn1 [Compound 450]
44 | < 100 | COC(=O)c1cc(C)nc(N[C@H]2CC[C@@H](Oc3cc(N4CCOCC4)cc4nccnc34)CC2)n1 [Compound 565]
45 | < 100 | COc1nc(C)nc(N[C@H]2CC[C@@H](Oc3cc(N4CCOCC4)cc4nccnc34)CC2)n1 [Compound 604]
46 | < 100 | Clc1nc(N[C@H]2CC[C@@H](Oc3cc(N4CCOCC4)cc4nccnc34)CC2)nc(C2CC2)n1 [Compound 605]
47 | < 100 | CCOc1cc(N[C@H]2CC[C@@H](Oc3cc(N4CCOCC4)cc4nccnc34)CC2)nc(C)n1 [Compound 644]
